Source: patent publication US10138222B2, “Substituted benzamides as RIPK2 inhibitors” (Boehringer Ingelheim International GmbH, priority 2016, dated 2018)

Target: RIPK2 (Homo sapiens (Human), UniProt O43353)
Experiment: RIPK2 inhibition, ADP-Glo Kinase Assay
Format: biochemical
Conditions: 8His-RIPK2 FL enzyme 8 nM, ATP 5 μM, 15 minutes pre-incubation, 60 minutes at 37° C., luminescence
Procedure: RIPK2 inhibition for compounds in Table 1 are shown in Table 3 and measured using the following method:
Materials: White, 384-well optiplates (cat.no. 6007290) were purchased from PerkinElmer. The V9103X ADP-Glo Kinase Assay Custom (including ultra-pure ATP) was purchased from Promega. 8His-RIPK2 FL was prepared in-house. All other materials were of highest grade commercially available.
Method: In a 384-well plate, test compound diluted in assay buffer (1% DMSO final) is mixed with 8His-RIPK2 FL enzyme (final concentration of 8 nM). After 15 minutes of pre-incubation at RT, ATP dissolved in assay buffer is added (final concentration 5 μM). The mixture is incubated for 60 minutes at 37° C. in a humidified incubator. Then, ADP Glo Reagent is added, followed by a 40 minute incubation at rt. Finally, Kinase Detection Reagent is added and the entire mixture is incubated for 40 min at RT. The luminescence signal is measured with an Envision reader to determine the amount of ADP produced. Assay buffer: 25 mM HEPES (4-(2-hydroxyethyl)-1-piperazinethanesulfonic acid), 0.1% BSA (bovine serum albumin), 10 mM MgCl2, 5 mM MnCl2, 50 mM KCl, 0.01% CHAPS (3-[(3-cholamidopropyl)dimethylammonio]-1-propanesulfonate), 10 μM Na3VO4, 1 mM DTT (dithiothreitol), pH 7.5 All plates contain wells with vehicle controls instead of compound (1% DMSO) as reference for the high signal (100% CTL (100% of control), high signal), and wells without enzyme as reference for low signal (0% CTL, low signal). The luminescent signal generated is proportional to the ADP produced and is correlated with enzyme activity. The analysis of the data is performed by the calculation of the percentage of ADP production in the presence of the test compound and RIPK2 as compared to the ADP production in the presence of RIPK2 plus 50 μM Gefitinib. (RLU (relative luminescence units) (sample)−RLU(low control))*100/(RLU(high value)−RLU(low control)) [RLU=relative luminescence units].

Sequence of RIPK2 (O43353 whole entry): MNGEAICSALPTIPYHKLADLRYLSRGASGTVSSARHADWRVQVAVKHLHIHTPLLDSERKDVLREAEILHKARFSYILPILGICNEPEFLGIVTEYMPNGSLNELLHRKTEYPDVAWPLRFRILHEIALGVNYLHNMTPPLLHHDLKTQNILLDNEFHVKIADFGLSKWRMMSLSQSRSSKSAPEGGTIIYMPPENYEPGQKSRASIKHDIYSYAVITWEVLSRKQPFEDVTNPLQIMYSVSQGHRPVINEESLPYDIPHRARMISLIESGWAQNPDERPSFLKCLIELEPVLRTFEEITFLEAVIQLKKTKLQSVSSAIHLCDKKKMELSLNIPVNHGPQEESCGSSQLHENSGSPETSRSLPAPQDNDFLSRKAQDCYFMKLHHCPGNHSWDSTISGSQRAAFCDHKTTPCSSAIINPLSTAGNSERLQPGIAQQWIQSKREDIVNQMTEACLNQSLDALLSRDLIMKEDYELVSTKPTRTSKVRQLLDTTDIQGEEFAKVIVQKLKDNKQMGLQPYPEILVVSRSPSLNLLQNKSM

## Cc1ccc(C(=O)NC2CC2)cc1-c1cnn(-c2cncc(NC(=O)NC3CC3)c2)c1 [Example 108, N-cyclopropyl-3-(1-{5-[(cyclopropylcarbamoyl)amino]pyridin-3-yl}-1H-pyrazol-4-yl)-4-methylbenzamide]
  IC50: 4.4 nM

## Cc1ccc(C(=O)NC2CC2)cc1-c1cnn(-c2cncc(NC(=O)NC3CCC3)c2)c1 [Example 109, 3-(1-{5-[(cyclobutylcarbamoyl)amino]pyridin-3-yl}-1H-pyrazol-4-yl)-N-cyclopropyl-4-methylbenzamide]
  IC50: 3.6 nM

## Cc1ccc(C(=O)NC2CC2)cc1-c1cnn(-c2cncc(NC(=O)NC(C)C)c2)c1 [Example 110, N-cyclopropyl-4-methyl-3-[1-(5-{[(propan-2-yl)carbamoyl]amino}pyridin-3-yl)-1H-pyrazol-4-yl] benzamide]
  IC50: 3.4 nM

## CC(=O)Nc1cncc(-n2cc(-c3cc(C(=O)NC4CC4)ccc3C)cn2)c1 [Example 111, N-cyclopropyl-3-[1-(5-acetamido-pyridin-3-yl)-1H-pyrazol-4-yl]-4-methylbenzamide]
  IC50: 5.3 nM

## COCC(=O)Nc1cncc(-n2cc(-c3cc(C(=O)NC4CC4)ccc3C)cn2)c1 [Example 112, N-cyclopropyl-3-{1-[5-(2-methoxyacetamido)pyridin-3-yl]-1H-pyrazol-4-yl}-4-methylbenzamide]
  IC50: 7.8 nM

## Cc1ccc(C(=O)NC2CC2)cc1-c1cnn(-c2cncc(NC(=O)C(C)C)c2)c1 [Example 113, N-cyclopropyl-4-methyl-3-{1-[5-(2-methylpropanamido)pyridin-3-yl]-1H-pyrazol-4-yl}benzamide]
  IC50: 3.5 nM

## Cc1ccc(C(=O)NC2CC2)cc1-c1cnn(-c2cncc(NC(=O)CC(C)C)c2)c1 [Example 114, N-cyclopropyl-4-methyl-3-{1-[5-(3-methylbutanamido)pyridin-3-yl]-1H-pyrazol-4-yl}benzamide]
  IC50: 2.7 nM

## Cc1ccc(C(=O)NC2CC2)cc1-c1cnn(-c2cncc(NC(=O)C3CCC3)c2)c1 [Example 115, 3-[1-(5-cyclobutaneamidopyridin-3-yl)-1H-pyrazol-4-yl]-N-cyclopropyl-4-methylbenzamide]
  IC50: 2.7 nM

## Cc1ccc(C(=O)NC2CC2)cc1-c1cnn(-c2cncc(NC(=O)CF)c2)c1 [Example 116, N-cyclopropyl-3-{1-[5-(2-fluoroacetamido)pyridin-3-yl]-1H-pyrazol-4-yl}-4-methylbenzamide]
  IC50: 7.2 nM

## CCC(=O)Nc1cncc(-n2cc(-c3cc(C(=O)NC4CC4)ccc3C)cn2)c1 [Example 117, N-cyclopropyl-4-methyl-3-[1-(5-propanamidopyridin-3-yl)-1H-pyrazol-4-yl]benzamide]
  IC50: 3.4 nM

## Cc1ccc(C(=O)NC2CC2)cc1-c1cnn(-c2cncc(N(C)C)n2)c1 [Example 118, N-cyclopropyl-3-{1-[6-(dimethylamino)pyrazin-2-yl]-1H-pyrazol-4-yl}-4-methylbenzamide]
  IC50: 110 nM

## Cc1cncc(-n2cc(-c3cc(C(=O)NC4CC4)ccc3C)cn2)c1 [Example 119, N-cyclopropyl-4-methyl-3-[1-(5-methylpyridin-3-yl)-1H-pyrazol-4-yl]benzamide]
  IC50: 24 nM

## Cc1ccc(C(=O)NC2CC2)cc1-c1cnn(-c2cncc(NC(=O)C(C)(C)C)c2)c1 [Example 121, N-cyclopropyl-3-{1-[5-(2,2-dimethylpropanamido)pyridin-3-yl]-1H-pyrazol-4-yl}-4-methyl-benzamide]
  IC50: 13 nM

## Cc1ccc(C(=O)NC2CC2)cc1-c1cnn(-c2cncc(NS(C)(=O)=O)c2)c1 [Example 122, N-cyclopropyl-3-[1-(5-methanesulfonamidopyridin-3-yl)-1H-pyrazol-4-yl]-4-methyl-benzamide]
  IC50: 9.5 nM

## CN(C)c1cncc(-n2cc(-c3cc(C(=O)NC4CC4)c(F)cc3Cl)cn2)n1 [Example 123, 4-chloro-N-cyclopropyl-5-{1-[6-(dimethylamino)pyrazin-2-yl]-1H-pyrazol-4-yl}-2-fluorobenzamide]
  IC50: 43 nM

## CC(=O)N1CC(Oc2cncc(-n3cc(-c4cc(C(=O)NC5CC5)ccc4C)cn3)c2)C1 [Example 124, 3-(1-{5-[(1-acetylazetidin-3-yl)oxy]pyridin-3-yl}-1H-pyrazol-4-yl)-N-cyclopropyl-4-methylbenzamide]
  IC50: 13 nM

## Cc1ccc(C(=O)NC2CC2)cc1-c1cnn(-c2cncc([C@H]3CCC(=O)N3C)c2)c1 [Example 125, N-cyclopropyl-4-methyl-3-(1-{5-[(2R)-1-methyl-5-oxopyrrolidin-2-yl]pyridin-3-yl}-1H-pyrazol-4-yl)benzamide]
  IC50: 130 nM

## CC(=O)N1CC[C@@H](Oc2cncc(-n3cc(-c4cc(C(=O)NC5CC5)ccc4C)cn3)c2)C1 [Example 126, 3-[1-(5-{[(3R)-1-acetylpyrrolidin-3-yl]oxy}pyridin-3-yl)-1H-pyrazol-4-yl]-N-cyclopropyl-4-methyl-benzamide]
  IC50: 20 nM

## COc1cncc(-n2cc(-c3cc(C(=O)NC4CC4)ccc3C)cn2)n1 [Example 127, N-cyclopropyl-3-[1-(6-methoxy-pyrazin-2-yl)-1H-pyrazol-4-yl]-4-methylbenzamide]
  IC50: 86 nM

## Cc1ccc(C(=O)NC2CC2)cc1-c1cnn(-c2cncc(C3CCOCC3)n2)c1 [Example 128, N-cyclopropyl-4-methyl-3-{1-[6-(oxan-4-yl)pyrazin-2-yl]-1H-pyrazol-4-yl}benzamide]
  IC50: 94 nM

## CC(=O)N1CC[C@H](Oc2cncc(-n3cc(-c4cc(C(=O)NC5CC5)ccc4C)cn3)c2)C1 [Example 129, 3-[1-(5-{[(3S)-1-acetylpyrrolidin-3-yl]oxy}pyridin-3-yl)-1H-pyrazol-4-yl]-N-cyclopropyl-4-methyl-benzamide]
  IC50: 44 nM

## Cc1ccc(C(=O)NC2CC2)cc1-c1cnn(-c2cncc(C3(C#N)CC3)c2)c1 [Example 131, 3-{1-[5-(1-cyanocyclopropyl)pyridin-3-yl]-1H-pyrazol-4-yl}-N-cyclo-propyl-4-methylbenzamide]
  IC50: 11 nM

## Cc1ccc(C(=O)NC2CC2)cc1-c1cnn(-c2cncc(CN3CCOCC3=O)c2)c1 [Example 135, N-cyclopropyl-4-methyl-3-(1-{5-[(3-oxomorpholin-4-yl)methyl]pyridin-3-yl}-1H-pyrazol-4-yl)benzamide]
  IC50: 120 nM

## Cc1ccc(C(=O)NC2CC2)cc1-c1cnn(-c2cncc(C(C)N3CCCCS3(=O)=O)c2)c1 (centres unmarked) [Example 136, N-cyclopropyl-3-(1-{5-[1-(1,1-dioxo-1λ^6,2-thiazinan-2-yl)ethyl]pyridin-3-yl}-1H-pyrazol-4-yl)-4-methyl-benzamide]
  IC50: 43 nM

## Cc1ccc(C(=O)NC2CC2)cc1-c1cnn(-c2cncc(C3(O)CCOCC3)c2)c1 [Example 137, N-cyclopropyl-3-{1-[5-(4-hydroxy-oxan-4-yl)pyridin-3-yl]-1H-pyrazol-4-yl}-4-methylbenzamide]
  IC50: 120 nM

## Cc1ccc(C(=O)NC2CC2)cc1-c1cnn(-c2cncc(C3(O)CCOC3)c2)c1 (centres unmarked) [Example 138, N-cyclopropyl-3-{1-[5-(3-hydroxy-oxolan-3-yl)pyridin-3-yl]-1H-pyrazol-4-yl}-4-methylbenzamide]
  IC50: 25 nM

## Cc1ccc(C(=O)NC2CC2)cc1-c1cnn(-c2cncc(C(C)N3CCCC3=O)c2)c1 (centres unmarked) [Example 140, N-cyclopropyl-4-methyl-3-(1-{5-[1-(2-oxopyrrolidin-1-yl)ethyl]pyridin-3-yl}-1H-pyrazol-4-yl)benzamide]
  IC50: 38 nM

## CNc1cncc(-n2cc(-c3cc(C(=O)NC4CC4)ccc3C)cn2)c1 [Example 141, N-cyclopropyl-4-methyl-3-{1-[5-(methylamino)pyridin-3-yl]-1H-pyrazol-4-yl}benzamide]
  IC50: 2.6 nM

## Cc1ccc(C(=O)NC2CC2)cc1-c1cnn(-c2cncc(NC(=O)NC3CCOC3)c2)c1 (centres unmarked) [Example 142, N-cyclopropyl-4-methyl-3-[1-(5-{[(oxolan-3-yl)carbamoyl]amino}pyridin-3-yl)-1H-pyrazol-4-yl] benzamide]
  IC50: 3.2 nM

## COCCC(=O)Nc1cncc(-n2cc(-c3cc(C(=O)NC4CC4)ccc3C)cn2)c1 [Example 143, N-cyclopropyl-3-{1-[5-(3-methoxypropanamido)pyridin-3-yl]-1H-pyrazol-4-yl}-4-methylbenzamide]
  IC50: 6.1 nM

## Cc1ccc(C(=O)NC2CC2)cc1-c1cnn(-c2cncc(NC(=O)C3CC3)c2)c1 [Example 144, 3-[1-(5-cyclopropaneamidopyridin-3-yl)-1H-pyrazol-4-yl]-N-cyclo-propyl-4-methylbenzamide]
  IC50: 2.9 nM

## Cc1ccc(C(=O)NC2CC2)cc1-c1cnn(-c2cncc(OC3CCOC3)c2)c1 (centres unmarked) [Example 145, N-cyclopropyl-4-methyl-3-{1-[5-(oxolan-3-yloxy)pyridin-3-yl]-1H-pyrazol-4-yl}benzamide]
  IC50: 4.7 nM
